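Test compounds were applied to cells in 96-well plates for 48 hours at 5 doses. GI50 marks 50% less growth.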 The source made the active and inactive calls. No stated cut-off is given here; in the data, active = GI50 up to about 1.1 µM and inactive = higher.
Columns and labels:
Test in all cases: NCI tumour cell line growth inhibition, 48 h
[1] = tested on: HCT-116
[2] = tested on: SNB-75
[3] = tested on: CAKI-1
[4] = tested on: HCT-15
[5] = tested on: HOP-92
[6] = tested on: TK-10
[7] = tested on: HT-29
[8] = tested on: LOX IMVI
[9] = tested on: OVCAR-5
[10] = tested on: OVCAR-8
[11] = tested on: NCI-H23
[12] = tested on: EKVX
[13] = tested on: SK-OV-3
[14] = tested on: OVCAR-3

SMILES | GI50 [1] | GI50 [2] | GI50 [3] | GI50 [4] | GI50 [5] | GI50 [6] | GI50 [7] | GI50 [8] | GI50 [9] | GI50 [10] | GI50 [11] | GI50 [12] | GI50 [13] | GI50 [14]
N=C(N)NS(=O)(=O)c1ccc(NC(=O)c2cccc3c(Nc4ccc(S(=O)(=O)N=C(N)N)cc4)c4ccc(Cl)cc4nc23)cc1 | 38.7 µM (inactive) | 30.8 µM (inactive) | 94.6 µM (inactive) | > 100 µM | 32.7 µM (inactive) | > 100 µM (inactive) | > 100 µM (inactive) | 37.2 µM (inactive) | > 100 µM (inactive) | 61.2 µM (inactive) | > 100 µM (inactive) | 96.8 µM (inactive) | 32.1 µM (inactive) | 60.5 µM (inactive)
CCCCCCn1c(SCC)c2ccccc2c1-c1nc(F)nc(F)n1 | > 100 µM (inactive) | 73.5 µM (inactive) | > 100 µM (inactive) | > 100 µM | > 100 µM (inactive) | > 100 µM (inactive) | > 100 µM (inactive) | > 100 µM (inactive) | > 100 µM (inactive) | > 100 µM (inactive) | > 100 µM (inactive) | > 100 µM (inactive) | > 100 µM (inactive) | > 100 µM (inactive)
O=C1/C(=C/c2ccccc2)CN(C(=O)Oc2ccc([N+](=O)[O-])cc2)C/C1=C\c1ccccc1 | 0.506 µM (active) | 4.4 µM (inactive) | > 10 µM (inactive) | 2.08 µM | > 10 µM (inactive) | > 10 µM (inactive) | 1.42 µM (inactive) | 0.676 µM (active) | > 10 µM (inactive) | 1.12 µM (active) | 7.76 µM (inactive) | > 10 µM (inactive) | > 10 µM (inactive) | 3.73 µM (inactive)
Cc1cc(CC(O)c2ccc(Cl)c(Cl)c2)nc(O)n1 (stereo not given) | 19.6 µM (inactive) | 17.7 µM (inactive) | 21.7 µM (inactive) | 30.7 µM | 18 µM (inactive) | 86.9 µM (inactive) | 46.9 µM (inactive) |  | 69 µM (inactive) | 46.1 µM (inactive) | 27.5 µM (inactive) | 29.8 µM (inactive) | 35.2 µM (inactive) | 32.2 µM (inactive)
COc1ccc(/C=C2\CCCCC2=O)cc1 | > 100 µM (inactive) | 41.8 µM (inactive) | 92.5 µM (inactive) | > 100 µM |  | > 100 µM (inactive) | > 100 µM (inactive) | > 100 µM (inactive) |  | > 100 µM (inactive) | > 100 µM (inactive) | > 100 µM (inactive) | > 100 µM (inactive) | > 100 µM (inactive)
COC(OC)[C@@H](C)[C@H](O)[C@](C)(O)C1OC(C)(C)OC(C(C)C=C(C)C)C1C (stereo not given in full) | > 100 µM (inactive) | > 100 µM (inactive) | > 100 µM (inactive) | > 100 µM | > 100 µM (inactive) | > 100 µM (inactive) | > 100 µM (inactive) | > 100 µM (inactive) | > 100 µM (inactive) | > 100 µM (inactive) | > 100 µM (inactive) | > 100 µM (inactive) | > 100 µM (inactive) | > 100 µM (inactive)
O=C(O)C#CCO | > 100 µM (inactive) | > 100 µM (inactive) | > 100 µM (inactive) | > 100 µM | > 100 µM (inactive) | > 100 µM (inactive) | > 100 µM (inactive) | > 100 µM (inactive) | > 100 µM (inactive) | > 100 µM (inactive) | > 100 µM (inactive) | > 100 µM (inactive) | > 100 µM (inactive) | > 100 µM (inactive)
Cc1ccc(Nc2nc(-c3ccc(-c4ccc([N+](=O)[O-])cc4)o3)cs2)cc1 | 67.1 µM (inactive) | 50.5 µM (inactive) | > 100 µM (inactive) | 15.7 µM | 37.2 µM (inactive) | 25.4 µM (inactive) | 28.4 µM (inactive) | 33.8 µM (inactive) | 59 µM (inactive) | 40.6 µM (inactive) | 25.6 µM (inactive) |  | > 100 µM (inactive) | > 100 µM (inactive)
CC(Cn1c2c3ccccc3ccc2c2oc(=O)c3ccccc3c21)N(C)C (stereo not given) | > 100 µM (inactive) | > 100 µM (inactive) | > 100 µM (inactive) | > 100 µM | > 100 µM (inactive) | > 100 µM (inactive) | > 100 µM (inactive) | > 100 µM (inactive) | > 100 µM (inactive) | > 100 µM (inactive) | > 100 µM (inactive) | > 100 µM (inactive) |  | > 100 µM (inactive)
COc1cccc(C2c3cc4c(cc3OC(O)(CO)C2C(=O)O)OCO4)c1.COc1cccc(C2c3cc4c(cc3OC3(O)COC(=O)C23)OCO4)c1 (stereo not given) | 46.1 µM (inactive) | 14.5 µM (inactive) |  | 43.9 µM | 30.6 µM (inactive) | > 100 µM (inactive) | 37.7 µM (inactive) | 52.1 µM (inactive) | > 100 µM (inactive) | 46 µM (inactive) | 43.5 µM (inactive) | 42.8 µM (inactive) | 91.8 µM (inactive) | 69.5 µM (inactive)
[O-]c1c2cc(-[n+]3c(-c4ccccc4)cc(-c4ccccc4)cc3-c3ccccc3)cc1COCCOCCOCCOCCOC2 | 32.8 µM (inactive) | 41.7 µM (inactive) | > 100 µM (inactive) | 73.6 µM | 26 µM (inactive) | 57.5 µM (inactive) | 35.6 µM (inactive) | 43 µM (inactive) | > 100 µM (inactive) | 31.5 µM (inactive) | 41.9 µM (inactive) | 33.9 µM (inactive) | 57.8 µM (inactive) | 
COc1ccccc1NC(=O)C(CC(C(=O)Nc1ccccc1OC)/C(C)=N/NC(=O)c1ccccc1O)/C(C)=N/NC(=O)c1ccccc1O (stereo not given) |  | 96.6 µM (inactive) | 67 µM (inactive) |  | 26 µM (inactive) | > 100 µM (inactive) | > 100 µM (inactive) | > 100 µM (inactive) | > 100 µM (inactive) | 75 µM (inactive) | > 100 µM (inactive) | 72.9 µM (inactive) | > 100 µM (inactive) | 54.1 µM (inactive)
Cc1cc(N(CCC#N)CCC#N)ccc1/C=C/C(=O)Nc1cccc(Cl)c1 | > 100 µM (inactive) | 89.9 µM (inactive) | > 100 µM (inactive) | 38.5 µM | 43.4 µM (inactive) | > 100 µM (inactive) | > 100 µM (inactive) | 52.2 µM (inactive) | > 100 µM (inactive) | > 100 µM (inactive) | > 100 µM (inactive) | > 100 µM (inactive) | > 100 µM (inactive) | > 100 µM (inactive)
COC(=O)C(c1ccc(OC)cc1)N1C(=O)[C@@H](NC(=O)c2ccccc2)[C@H]1[C@@H](C)O (stereo not given in full) | > 100 µM (inactive) | > 100 µM (inactive) |  | > 100 µM | > 100 µM (inactive) | > 100 µM (inactive) | > 100 µM (inactive) | > 100 µM (inactive) |  | > 100 µM (inactive) | > 100 µM (inactive) | > 100 µM (inactive) | > 100 µM (inactive) | > 100 µM (inactive)
O=c1[nH]c2cc([N+](=O)[O-])ccc2nc1/C(=N/Nc1ccccc1)C(O)c1ccccc1Cl (stereo not given) | > 100 µM (inactive) | 28.2 µM (inactive) |  | 7.8 µM | > 100 µM (inactive) | > 100 µM (inactive) | 46 µM (inactive) | > 100 µM (inactive) | 95.5 µM (inactive) | > 100 µM (inactive) | 90.8 µM (inactive) | 67.3 µM (inactive) | > 100 µM (inactive) | 59.3 µM (inactive)
CCCCCCCCCCCCCCCCP(=O)(OC)OC | 18.9 µM (inactive) | 16.6 µM (inactive) | 16.6 µM (inactive) | 16.6 µM | 16.4 µM (inactive) | 17.1 µM (inactive) | 17.5 µM (inactive) | 16.9 µM (inactive) | 13.9 µM (inactive) | 15.8 µM (inactive) | 16.5 µM (inactive) | 15 µM (inactive) | 15.2 µM (inactive) | 17.8 µM (inactive)
Nc1ncnc2c1ncn2CCCC(c1ccccc1)P(=O)(O)O (stereo not given) | > 100 µM (inactive) | > 100 µM (inactive) | 17 µM (inactive) | > 100 µM |  | > 100 µM (inactive) | > 100 µM (inactive) | > 100 µM (inactive) | > 100 µM (inactive) | > 100 µM (inactive) | > 100 µM (inactive) | > 100 µM (inactive) | > 100 µM (inactive) | > 100 µM (inactive)
O=C1C(Br)=CC2(C=C1Br)CCNC1=C2C(=O)c2ccccc2C1=O | 4.13 µM (inactive) | > 100 µM (inactive) | 21.6 µM (inactive) | 7.76 µM |  | 33.3 µM (inactive) | 18.7 µM (inactive) | 4.24 µM (inactive) |  | 4.21 µM (inactive) | 7.6 µM (inactive) | 38.5 µM (inactive) | 30.4 µM (inactive) | 29.6 µM (inactive)
C/C(CC(=O)Nc1cc(C)ccc1C)=N/N=C(N)N | > 100 µM (inactive) | > 100 µM (inactive) |  |  | > 100 µM (inactive) | > 100 µM (inactive) | > 100 µM (inactive) | > 100 µM (inactive) | > 100 µM (inactive) | > 100 µM (inactive) | > 100 µM (inactive) | > 100 µM (inactive) | > 100 µM (inactive) | > 100 µM (inactive)
CCc1cccc(C(C)CC)c1NC(=O)C(=O)C(CC(=O)Nc1ccc(Cl)c(Cl)c1)C(=O)OC (stereo not given) | > 100 µM (inactive) | 21 µM (inactive) | 19.5 µM (inactive) | 20.2 µM | 16.7 µM (inactive) | > 100 µM (inactive) | 76 µM (inactive) |  | > 100 µM (inactive) | > 100 µM (inactive) | > 100 µM (inactive) | > 100 µM (inactive) | > 100 µM (inactive) | > 100 µM (inactive)
Cc1nc(NC(=S)NC(=O)c2ccc(Cl)c(Cl)c2)sc1C(=O)/C=C/c1ccccc1[N+](=O)[O-] | 20.7 µM (inactive) |  | 21.1 µM (inactive) | 20.4 µM | 0.989 µM (active) | 36.1 µM (inactive) | 21.3 µM (inactive) | 16.6 µM (inactive) | > 10 µM (inactive) | 28.1 µM (inactive) | 20.9 µM (inactive) | 32.7 µM (inactive) | 15.6 µM (inactive) | 22.1 µM (inactive)

From ChEMBL document CHEMBL1201862, “PubChem BioAssay data set” (2004)
